In PubChem BioAssay (NCI):
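A five-concentration, 48-hour dose response in 96-well plates underlies each endpoint, interpolated linearly between surrounding concentrations. The concentration for full growth arrest is given as TGI.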

Key:
Experiment in all cases: NCI anticancer screen, dose series, 48 h
[1] = tested on: LOX IMVI melanoma
[2] = tested on: OVCAR-4 ovarian
[3] = tested on: 786-0 renal
[4] = tested on: SK-MEL-5 melanoma
[5] = tested on: SF-295 CNS
[6] = tested on: IGROV1 ovarian
[7] = tested on: UO-31 renal
[8] = tested on: MDA-MB-435
[9] = tested on: NCI-H226 lung
[10] = tested on: T-47D breast
[11] = tested on: M14 melanoma
[12] = tested on: A549 NSCLC
[13] = tested on: MCF7 breast
[14] = tested on: NCI-H522 lung
[15] = tested on: CAKI-1 renal
[16] = tested on: COLO 205 colon
[17] = tested on: UACC-257 melanoma
[18] = tested on: MALME-3M melanoma
[19] = tested on: NCI/ADR-RES ovarian

COC(=O)c1c(C)[nH]c2c1C(=O)C(=O)c1nc(C)c(C)nc1-2
TGI [1]: 24.1 µM | TGI [2]: 28.7 µM | TGI [3]: 25.9 µM | TGI [4]: 20 µM | TGI [5]: 18.3 µM | TGI [6]: 36.1 µM | TGI [7]: 35.7 µM | TGI [8]: 28.5 µM | TGI [9]: 26.7 µM | TGI [10]: 9.55 µM | TGI [11]: 27 µM | TGI [12]: > 100 µM | TGI [13]: 24.8 µM | TGI [14]: 21.4 µM | TGI [15]: > 100 µM | TGI [16]: 29.5 µM | TGI [17]: 24.6 µM | TGI [18]: 15.7 µM | TGI [19]: 78.1 µM

O=[N+]([O-])c1ccc(-n2nc3ccc4c(no[n+]4[O-])c3[n+]2[O-])c([N+](=O)[O-])c1
TGI [1]: 4.33 µM | TGI [2]: 3.19 µM | TGI [3]: 7.97 µM | TGI [4]: 7.54 µM | TGI [5]: 11.9 µM | TGI [6]: 3.4 µM | TGI [7]: 13.2 µM | TGI [8]: 7.39 µM | TGI [9]: 23.3 µM | TGI [10]: 6.63 µM | TGI [11]: 3.29 µM | TGI [12]: 31.4 µM | TGI [13]: 3.98 µM | TGI [14]: 4.03 µM | TGI [15]: 6.06 µM | TGI [16]: 3.29 µM | TGI [17]: 3.65 µM | TGI [18]: 7.45 µM | TGI [19]: 11 µM

C=C1CCCC(C)(C)[C@H]1C/C=C1\CCOC1=O
TGI [1]: 23.6 µM | TGI [2]: 26.8 µM | TGI [3]: 28.7 µM | TGI [4]: 21.8 µM | TGI [5]: 30.8 µM | TGI [6]: 28.8 µM | TGI [7]: 29.6 µM | TGI [8]: 22 µM | TGI [9]: 24.9 µM | TGI [10]: > 100 µM | TGI [11]: 34 µM | TGI [12]: 26.6 µM | TGI [13]: 25.4 µM | TGI [14]: 40.4 µM | TGI [15]: 30.2 µM | TGI [16]: 33.4 µM | TGI [17]: 24.5 µM | TGI [18]: 26.9 µM | TGI [19]: 26.8 µM
